# Assays:
# sigma-2 receptor = sigma-2 receptor (Homo sapiens, UniProt Q5BJF2); settings: cited from earlier work
# sigma-1 receptor [1] = target: T1, sigma-1 receptor (Homo sapiens, UniProt Q99720); settings: cited from earlier work
# sigma-1 receptor [2] = target: T1, sigma-1 receptor; settings: cited from earlier work; remark: listed apart in the source
# [3] = test system: CD4+ and CD8+ lymphocytes; settings: cited from earlier work
# Candida albican = settings: in vivo; cited from earlier work
# SARS-CoV-2 [4] = settings: cited from earlier work
# SARS-CoV-2 [5] = type: cell-based
# Calu-3 cells = experiment: Cell death and viability of Calu-3 cells (cytotoxicity, no virus); type: cell-based, human
# Procedure: 4. Cytotoxicity assays were conducted in parallel, for these no virus was added.
# a. Cell viability: was assessed by staining cells with the ViaStain™ Calcein AM/Hoechst/PI Viability Kit (Nexcelom, Cat #CS5-V006-1) per manufacturer's instructions and imaging with the Celígo Imaging Cytometer (Nexcelom). Briefly, live and metabolically active cells were detected using the Calcein AM stain (Ex/Em: 488/520). Dead cells were detected using the propidium iodide stain (PI, Ex/Em: 493/636). Total number of cells were detected using the Hoechst-nuclear stain (Ex/Em: 352/461). Thus, cell viability was assessed by comparing live cells counts (normalized to total cell count) across treatment groups, and cell cytotoxicity was assessed through comparison of dead cell counts (normalized to total cells) across treatment groups.
# sigma = settings: non-selective sigma binding assay; cited from earlier work
# [6] = test system: interleukin-1beta and TNF-alpha; settings: in vivo; cited from earlier work
# [7] = test system: Vero E6 cells infected with SARS-CoV-2; experiment: Neutral red cytoprotection/cytotoxicity in Vero E6 cells infected with SARS-CoV-2; settings: Vero E6, dose response
# T1 sequence (Q99720 whole entry, species assumed): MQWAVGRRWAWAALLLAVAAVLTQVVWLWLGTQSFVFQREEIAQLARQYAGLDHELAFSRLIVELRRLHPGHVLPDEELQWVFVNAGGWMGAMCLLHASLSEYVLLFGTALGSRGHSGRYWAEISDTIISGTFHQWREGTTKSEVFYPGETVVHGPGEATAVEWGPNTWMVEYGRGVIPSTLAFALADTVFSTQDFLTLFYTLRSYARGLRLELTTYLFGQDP
# Sequence of sigma-2 receptor (Q5BJF2 whole entry): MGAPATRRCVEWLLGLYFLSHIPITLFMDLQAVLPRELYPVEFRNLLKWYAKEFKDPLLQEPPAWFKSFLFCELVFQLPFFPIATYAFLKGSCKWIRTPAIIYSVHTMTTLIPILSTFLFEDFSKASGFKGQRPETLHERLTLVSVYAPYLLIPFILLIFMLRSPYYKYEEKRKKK
smiles,measurement,setting,value
CCN(CC)CCCC(C)Nc1ccnc2cc(Cl)ccc12 (centres unmarked) [Chloroquine],binding/activity at sigma-2 receptor,sigma-2 receptor,low uM activity
same,binding/activity at sigma-1 receptor,sigma-1 receptor [1],mid-nM activity
CCN[C@@H](C)Cc1cccc(C(F)(F)F)c1 (racemic) [dexfenfluramine],sigma-1 receptor modulation,sigma-1 receptor [2],positive modulators
same,number of CD4+ and CD8+ lymphocytes that produced IFN-gamma,[3]; HIV+ or HIV- patients,increased
same,number of CD8+ lymphocytes that produce TNF-alpha,[3]; HIV+ patients,increased
same,amount of IL-2 produced by CD4+ and CD8+ lymphocytes,[3]; lymphocytes from HIV+ patients,increased
same,CD3+ and CD8+ lymphocytes,Candida albican,marked increase
same,numbers of NK1.1+ cells,Candida albican,modest increase
O=C(CCCN1CCC(O)(c2ccc(Cl)cc2)CC1)c1ccc(F)cc1 [Haloperidol],binding/activity at sigma-2 receptor,sigma-2 receptor,low nM range
same,inhibition of SARS-CoV-2 in vitro,SARS-CoV-2 [4],inhibit
CCN(CCO)CCCC(C)Nc1ccnc2cc(Cl)ccc12 (centres unmarked) [hydroxy-chloroquine],inhibition of SARS-CoV-2 in vitro,SARS-CoV-2 [4],inhibit
"CCNC(C)Cc1cccc(C(F)(F)F)c1 (racemic) [fenfluramine, (RS)—N-ethyl-1-[3-(trifluoromethyl)phenyl]propan-2-amine]",average viral replication (mNeonGreen fluorescence normalized to total cell count),SARS-CoV-2 [5],about 2·10^3
same,SARS-CoV-2 viral replication compared with control cells receiving only vehicle,"SARS-CoV-2 [5]; Calu-3 cells, 50 mM fenfluramine as printed, 72 hr",statistically significantly (p<0.0001) lower
same,cytotoxicity (cell death and viability versus controls),Calu-3 cells; 20 μg/ml,not cytotoxic
same,cytotoxicity (cell death and viability versus controls),Calu-3 cells; 40 μg/ml,cytotoxic
same,Ki,sigma,266 nM
same,sigma-1 receptor modulation,sigma-1 receptor [2],positive allosteric modulator
same,production of interleukin-1beta and TNF-alpha,[6],suppressed
same,"neutral red signal, virus infected cells","[7]; SARS-CoV-2 infected MOI 0.1, FIG. 4B",~0.2
same,"neutral red signal, uninfected cells","[7]; uninfected cells, FIG. 4B",~1.0

# Reference: US11612574B2 (priority 2020, dated 2023)
